Square brackets hold non-standard residues; d marks the D form. Peptide text beside a SMILES is read from it. * marks the point of attachment. Dolaproine = CO[C@@H]([C@@H]1CCCN1)[C@@H](C)C(=O)O; Dil = CC[C@H](C)[C@H](NC)[C@@H](CC(=O)O)OC; X1 = C[C@@H](N*)[C@@H](O)c1ccccc1; NMeV = CN[C@H](C(=O)O)C(C)C
Columns and labels:
T cells = test: T cell activation in CSFE labeled PBMCs fed drug-killed MDA-MB-231 cells, with or without nivolumab; assay type: cell-based, human; conditions: for T cell proliferation (CSFE dilution) / IFNγ production / IL12p70 production: MDA-MB-231 cells exposed to the agent; for T cell proliferation (CSFE dilution): fed to CSFE labeled human PBMCs for 48 hours; for IFNγ production / IL12p70 production: fed to human PBMCs for 48 hours
Source text: Induction of the innate immune response following exposure to cancer cells undergoing ICD sets up secondary T cell activation, which can be enhanced by concomitant anti-PD1 treatment.

advanced cervical cancer = conditions: 240 mg Q2W, 19 patients with previously treated; cited from earlier work
[1] = system: Tissue Factor positive cell lines; test: Release of ICD molecules ATP and HMGB1 from Tissue Factor positive cells; assay type: cell-based; conditions: for ATP secretion: FIG. 4A; for HMGB1 release: FIG. 4C
Source text: Auristatin ADC payloads disrupt the microtubule networks resulting in altered ER localization and function, which ultimately results in ER stress. Cells exposed to Tissue Factor directed antibody linked to the monomethyl auristatin E payload (MMAE), i.e., tisotumab vedotin (an antibody drug conjugate or ADC), undergo cell death and as they do release the ICD related molecules ATP (FIG. 4A) and HMGB1 (FIG. 4C). The release of these molecules is specific to tisotumab vedotin ADC and MMAE treatment and occurs across multiple Tissue Factor positive cell lines (FIG. 4B).

[2] = system: HPAFII (pancreatic carcinoma); test: Western blot of ER stress pathways in HPAFII cells; assay type: cell-based; conditions: 18 hours (FIG. 5 legend: 16 hours)
Description: (§1) Induction of cell death and release of ICD danger signals occurs concomitant with initiation of an ER stress response. Two Tissue Factor positive cell lines, HPAFII (pancreatic carcinoma) and MDA-MB-231 (breast cell carcinoma) were exposed to tisotumab vedotin ADC, an Isotype-MMAE ADC (H00-MMAE, IgG1 MMAE), or free MMAE for 18 hours and induction of ER stress monitored by western blot analysis. Phosphorylation of inositol-requiring transmembrane kinase/endonuclease 1 (IRE1) was detected after treatment with tisotumab vedotin ADC or MMAE free drug (FIG. 5). […] The ability for auristatins to prime the immune system to recognize tumor antigens opens the door for a myriad of combinatorial therapeutic options.

[3] = system: MDA-MB-231 (breast cell carcinoma); test: Western blot of ER stress pathways in MDA-MB-231 cells; assay type: cell-based; conditions: 18 hours (FIG. 5 legend: 16 hours)
Description: as §1

[4] = system: CD14+ monocyte/macrophages; test: Monocyte/macrophage activation in PBMCs fed drug-killed MDA-MB-231 cells; assay type: cell-based; conditions: MDA-MB-231 cells killed with the agent, fed to human PBMCs; for monocyte/macrophage activation monitored by CD86 expression: flow cytometry
Source text: FIGS. 6A and 6B is a series of graphs in which Tissue Factor positive MDA-MB-231 cells killed with various agents were fed to human peripheral blood mononuclear cells (PBMCs) and immune activation assessed by increased expression of activations markers on innate CD14+ monocyte/macrophages and induction of chemokine and cytokine production.
Immunogenic cell death, as mediated by MMAE, is regulated cell death that activates adaptive immune responses against antigens from dead and dying tumor cells, and allows for the generation of robust innate immune cell activation and subsequent cytotoxic T cell responses targeted towards specific tumor cell antigens. […] Furthermore, these monocyte/macrophages conditioned by ICD-killed cells promote activation of T cells, as evidenced by production of signature inflammatory cytokines associated with cytotoxic T cell responses.

wild-type tumor cells = test: Syngeneic model: immunization with drug-killed human TF positive tumor cells, then tumor challenge; assay type: in vivo, Balb/c mice; conditions: for survival after challenge / tumor growth after challenge: Balb/c mice immunized with human TF positive tumor cells killed by the agent, challenged s.c. with 5×10^6 wild-type tumor cells
Description: Mouse tumor cells are transfected with plasmid constructs encoding human tissue factor (TF) and sgRNA-guided Cas9 nuclease (sgRNA/Cas9) to generate a murine cell line that expresses the human TF. Fluorescence activated cell sorting (FACS) yields a clonal population of murine tumor cells that stably express human TF, these cells are then treated with lpg to 5 μg per ml of tisotumab vedotin or 100 nM of MMAE for 4 days. In order to prepare dying cells for immunization, treated murine tumor cells are overlaid atop Histopaque, and centrifuged at 2000 g for 30 minutes. Dead and dying cells are pelleted underneath the Histopaque layer, and viability assessed by trypan blue exclusion. A sample with approximately <20% live cells as measured by trypan blue exclusion is obtained. Flash-frozen tumor cells are prepared by submerging the cells in liquid nitrogen for 10 seconds, followed by immersion in 37° C. water until completely thawed. The liquid nitrogen freeze-thaw process is repeated 5 times. Dead and dying human TF positive tumor cells are resuspended in phosphate buffered saline (PBS) and 2×10^6 cells are injected into the peritoneum of immune-competent Balb/c mice. Seven days later, mice receive a second immunization with dead and dying cells prepared in the same manner.
Fourteen days after initial immunization with the dead and dying human TF positive tumor cells, mice are subcutaneously implanted with 5×10^6 wild-type tumor cells and monitored for tumor growth. […] As these effects occur in the absence of any administered therapeutic agent, the administration of cells killed by tisotumab vedotin or MMAE is sufficient to generate long-lasting protective immune memory against subsequent tumor cell challenge. Protective immune memory is amplified by treating these mice with tisotumab vedotin in combination with an antibody that binds to murine PD-1. This combination treatment increases the number of mice that are cured by subsequent tumor challenge.

HeLa cells [5] = test: Western blot of ER stress signalling in MMAE-treated HeLa cells; assay type: cell-based; conditions: 100 nM MMAE, 16 hours
Description: HeLa cells, a cervical cancer cell line, were cultured in Minimum Essential Medium (MEM) with 10% FBS, 10 mM HEPES, 1 mM sodium pyruvate, 2 mM L-glutamine, penicillin (100 U/ml), and streptomycin (100 μg/ml). HeLa cells were treated with 100 nM MMAE for 16 hours and harvested in radioimmunoprecipitation assay buffer (RIPA) buffer for western blot analysis. […] Severe ER stress is a prerequisite to the exposure of pro-phagocytic signals on the surface of tumor cells, and can be indicated by activation of JNK signaling by phosphorylated IRE1.

HeLa cells [6] = test: Live imaging of RFP-tubulin and ER-ID Green in MMAE-treated HeLa cells; assay type: cell-based; conditions: 100 nM MMAE, imaged over time
Description: Treatment of HeLa cells with MMAE led to disassembly of the microtubule network and subsequent ER mislocalization. HeLa cells were transduced with a baculovirus encoding RFP-labeled Tubulin (CellLight Tubulin-RFP, ThermoFisher Scientific) and an ER-binding dye (ER-ID Green, Enzo Life Sciences). Cells were treated with 100 nM MMAE and imaged over time in the present of MMAE. Within 2 hours, fragmentation and disassembly of the microtubule network became evident, concurrent with the breakdown of the perinuclear organized ER lattice (FIGS. 2A and B). The condensed and mislocalized ER skeleton indicated severe ER stress within 8 hours.

HeLa cells [7] = test: ATP and HMGB1 secretion from MMAE-treated HeLa cells; assay type: cell-based; conditions: 100 nM MMAE, over 24 hours, versus untreated cells
Source text: Induction of ICD is also characterized by the secretion of ATP and HMGB1. Extracellular ATP serves as a strong chemotactic signal, promoting immune cell migration to the tumor site. Upon arrival, extracellular HMGB1 signals through various pro-inflammatory receptors (TLR2, TLR4, RAGE) to activate antigen-presenting cells, thereby promoting immune activity within the tumor.

[8] = concomitant nivolumab treatment, 48 hours

| Molecule | T cell proliferation (CSFE dilution) (T cells) | IFNγ production (T cells) | IL12p70 production (T cells) | ATP secretion [1] | HMGB1 release [1] | ATF4 cleavage (PERK pathway) [2] | activation of JNK (phosphorylation) [2] | phosphorylation of IRE1 [2] | ATF4 cleavage (PERK pathway) [3] | activation of JNK (phosphorylation) [3] | phosphorylation of IRE1 [3] | release of innate chemokines including MIP10 [4] | monocyte/macrophage activation monitored by CD86 expression [4] | survival after challenge (wild-type tumor cells) | tumor growth after challenge (wild-type tumor cells) | also measured |
| --- | --- | --- | --- | --- | --- | --- | --- | --- | --- | --- | --- | --- | --- | --- | --- | --- |
| nivolumab: anti-PD-1 antibody, a checkpoint inhibitor | – | – | – | – | – | – | – | – | – | – | – | – | – | – | – | effect of nivolumab on T cell proliferation driven by tisotumab vedotin or MMAE killed cells (T cells; 2 mg/ml of nivolumab, 48 hours): enhanced; effect of concomitant nivolumab on IFNγ production after tisotumab vedotin and MMAE killed cells (T cells; [8]): increased; effect of concomitant nivolumab on IL12p70 production after tisotumab vedotin and MMAE killed cells (T cells; [8]): increased; objective response rate (advanced cervical cancer): 26% |
| tisotumab | did not elicit these responses | did not elicit these responses | did not elicit these responses | – | – | – | – | – | – | – | – | – | – | – | – | – |
| tisotumab vedotin | drove T cell proliferation | increased | increased | robust | robust | upregulation of ATF4 cleavage | increased phosphorylation | detected | upregulation of ATF4 cleavage | increased phosphorylation | detected | induced release | drove monocyte/macrophage activations | increased survival | delayed tumor growth | activity (release of ICD molecules) on multiple Tissue Factor positive cell lines ([1]; FIG. 4B): active; number of mice cured by subsequent tumor challenge (wild-type tumor cells; immunized mice treated with tisotumab vedotin in combination with an antibody that binds to murine PD-1): increases |
| CC[C@H](C)[C@@H]([C@@H](CC(=O)N1CCC[C@H]1[C@H](OC)[C@@H](C)C(=O)N[C@H](C)[C@@H](O)c1ccccc1)OC)N(C)C(=O)[C@@H](NC(=O)[C@@H](NC)C(C)C)C(C)C [MMAE, monomethyl auristatin E] (H-[NMeV]V[Dil][Dolaproine]-X1) | drove T cell proliferation | increased | increased | robust | robust | upregulation of ATF4 cleavage | increased phosphorylation | detected | upregulation of ATF4 cleavage | increased phosphorylation | detected | induced release | drove monocyte/macrophage activations | increased survival | delayed tumor growth | phosphorylation of IRE1 (HeLa cells [5]): led to phosphorylation; phosphorylation of JNK (HeLa cells [5]): phosphorylation of IRE1 and JNK; time until condensed and mislocalized ER skeleton indicated severe ER stress (HeLa cells [6]): ≤ 8 h; time until fragmentation and disassembly of the microtubule network and breakdown of the perinuclear ER lattice became evident (HeLa cells [6]): ≤ 2 h; secretion of ATP (HeLa cells [7]): increased secretion; secretion of HMGB1 (HeLa cells [7]): increased secretion |
